The values below come from patent publication US8865664B2, “Hydrophobically enhanced aminoglycosides” (University of Manitoba, priority 2008, dated 2014).

A word on the MIC: it is the lowest concentration that inhibits growth of the organism.

In brackets after ≈: the same amount, converted by molar mass.

Experiment [1] has as its system Gram-positive organisms (ATCC and CAN-ICU strains). Kind of experiment: MIC, Gram-positive organisms (compounds ending in A). It counts as cell-based. Particulars: in words; Table 3 organisms. The method, then:
(§1) The minimum inhibitory concentrations (MIC) in μg/mL were determined using established methods (Clinical and Laboratory Standards Institute, 2006) and are shown in Table 3 (FIG. 17). Gentamicin, neomycin B and kanamycin A served as positive controls.

In experiment [2] the test system is Gram-negative organisms (ATCC and CAN-ICU strains). As to the kind of experiment: MIC, Gram-negative organisms (compounds ending in A). The conditions noted are these: in words; Table 3 organisms. It counts as cell-based. Here is the method: as §1
The test system of experiment [3] is MSSA (methicillin-susceptible S. aureus). Particulars: fatty acid against MSSA; cited from earlier work.
In another experiment the test system is MRSA. The conditions noted are these: fatty acid against MRSA; cited from earlier work.
Experiment [4] deals with Microorganisms from ATCC and CAN-ICU. Kind of experiment: MIC, all investigated bacteria (compounds ending in A). In kind it is cell-based. Particulars: in words; vs 4A. The method, then: as §1
Experiment [5] has as its system methicillin-resistant S. epidermidis (MRSE) (ATCC 14990). As to the kind of experiment: MIC, antibiotic susceptibility testing, MRSE (compounds 13-31). In kind it is cell-based, Staphylococcus epidermidis. Particulars: vs kanamycin A. The method, then:
(§2) Standard reference antibiotic susceptibility testing methods (NCCLS[CLS] (Clinical and Laboratory Standards Institute, 2006)) agar or dilutional methods was used to assess the activity of all prepared antimicrobials. Compounds were tested against Gram-positive strains including S. aureus, methicillin-resistant S. aureus (MRSA), S. epidermidis, methicillin-resistant S. epidermidis (MRSE) and S. pneumoniae as well as Gram-negative strains E. coli, gentamycin resistant E. coli and P. aeruginosa. Gentamycin and neomycin served as positive controls. MIC values defined as the lowest concentration of antimicrobial agent which inhibits the development of visible growth after 24 h at 37° C. was determined.

The test system of experiment [6] is methicillin-resistant S. aureus (MRSA) ATCC 33592. As to the kind of experiment: MIC, antibiotic susceptibility testing, MRSA. In kind it is cell-based, Staphylococcus aureus. Particulars: for fold enhancement against MRSA when compared to neomycin: vs neomycin. Here is the method:
as §2, §1

Experiment [7] deals with P. aeruginosa (ATCC 27853). As to the kind of experiment: MIC, P. aeruginosa (compounds 13-31). In kind it is cell-based, Pseudomonas aeruginosa. Particulars: in words; among neomycin-lipid conjugates. The method, then:
as §2

The subject of the next experiment is E. coli (ATCC 25922). As to the kind of experiment: MIC, E. coli (compounds 13-31). In kind it is cell-based. Particulars: in words. The method, then: as §2
Experiment [8] concerns gentamycin resistant E. coli (ATCC 6174). As to the kind of experiment: MIC, gentamycin resistant E. coli (compounds 13-31). In kind it is cell-based. Particulars: in words. Here is the method: as §2

In the case of “3,6′,3″,1′″-Tetraammonium-5,2′,4′,2″,3″,4″-hexa-O-phenylcarbamoyl-6″-deoxy-amikacin-tetrafluoroacetate [Compound 20A]”, the Gram-positive antibacterial activity entry in [1] is recorded as “reduced”. The Gram-negative activity entry in experiment [2] is “poor”.
For `CCCCCCCCCCCC(=O)O` [lauric acid], the MIC (in experiment [3]; in the experiment with MRSA) was 400 µg/mL (≈ 2000 µM) each time.
As to “4,3′,4′,2″,5″3′″,4″-Hexa-O-phenylcarbamoyl-1,3,2′,6′,2′″,6′″-hexa-N-(guanidinyl)-5″-deoxy-neomycin-hexafluoroacetate [Compound 9A]”, the “antibacterial activity when compared to 4A” value in [4] is “slightly reduced”.
In the case of “1,3,6′,3″-Tetraammonium-5,2″,4″,6″,2′″,3′″,4′″-hepta-β-phenylcarbamoyl-6″-deoxy-kanamycin-tetrafluoroacetate [Compound 11A]”, in [1], the Gram-positive antibacterial activity result was “reduced”. The Gram-negative activity result in [2] is “poor”.
For the compound `CCCCCCCCCCCCCCCC(=O)NCC1OC(OC2C(N)CC(N)C(OC3OC(CN)C(O)C(O)C3O)C2O)C(O)C(N)C1O.O=C(O)C(F)(F)F.O=C(O)C(F)(F)F.O=C(O)C(F)(F)F.O=C(O)C(F)(F)F` (stereo not drawn) [Compound 30, 1,3,6′,3″-Tetraammonium-6″-deoxy-6″-N-(hexadecanoyl)-kanamycin-tetrakis-(trifluoroacetate)], the “fold enhancement in antimicrobial activity against MRSE when compared to unmodified kanamycin A” value in experiment [5] worked out at 56 fold. Moreover, in experiment [6] (MRSA, vs kanamycin A), the “fold enhancement in antimicrobial activity against MRSA when compared to unmodified kanamycin A” value worked out at 35 fold.
As for “1,3,2′,6′,2′″,6″-Hexaammonium-5″-deoxy-5″-N-(nonadecanoyl)-neomycin hexakis(trifluoroacetate) [Compound 16]”, the “antimicrobial activity against P. aeruginosa” value in [7] was “optimal”. Moreover, in experiment [6] (MRSA), the “fold enhancement against MRSA when compared to neomycin” value is recorded as 32 fold.
Turning to “1,3,6′,3″-Tetraammonium-5,2′,4′,2″,3″,4″-hexa-O-phenylcarbamoyl-6″ hexadecanoyl-6″-deoxy-kanamycin-tetrafluoroacetate [Compound 14A]”, the Gram-positive antibacterial activity entry in experiment [1] is reported as “poor”. The Gram-negative activity entry in [2] is “poor”.
As for “1,3,2′,6′-Tetraammonium-4,5,3′,4′-tetra-O-phenylcarbamoyl-neamine-tetrafluoroacetate [Compound 17A]”, the Gram-positive antibacterial activity result in experiment [1] is on record as “reduced”. Also, the Gram-negative activity entry in [2] is reported as “higher”.
As to “1,3,2′,6′,2′″,6″-Hexaammonium-5″-deoxy-5″-N-(hexadecanoyl)-neomycin hexakis(trifluoroacetate) [Compound 15]”, the “fold enhancement against MRSA when compared to neomycin” value in experiment [6] (MRSA) is on record as 32 fold.
As for `CCCCCC(=O)NCC1OC(OC2C(O)C(N)CC(N)C2OC2OC(CN)C(O)C(O)C2N)C(O)C1OC1OC(CN)C(O)C(O)C1N.O=C(O)C(F)(F)F.O=C(O)C(F)(F)F.O=C(O)C(F)(F)F.O=C(O)C(F)(F)F.O=C(O)C(F)(F)F.O=C(O)C(F)(F)F` (stereo not drawn) [Compound 13, 1,3,2′,6′,2′″,6″-Hexaammonium-5″-deoxy-5″-N-(hexanoyl)-neomycin hexakis(trifluoroacetate)], the “activity against E. coli relative to the C16- or C20-lipid conjugates” value in the experiment on E. coli (ATCC 25922) was “stronger activity”. The “activity against gentamycin-resistant E. coli relative to the C16- or C20-lipid conjugates” value in experiment [8] is “stronger activity”.
With “1,3,2′,6′,2′″,6′″-Hexaammonium-6,3′,4′,2″,5″,4′″-hexa-β-phenylcarbamoyl-5″-hexadecanoyl-5″-deoxy-neomycin-hexafluoroacetate [Compound 7A]”, in [1], the Gram-positive antibacterial activity entry is reported as “poor”. In addition, the Gram-negative activity entry in [2] was “poor”.
In turn, neomycin [reference compound] showed an MIC in [6] (against MRSA, 24 h at 37° C.) of around 8 µg/mL.
